Several values for one entry are separate records, joined by “and”; a condition that tells them apart may be missing. Equal entries are not always repeated. Entries after “also recorded” stand apart in the source; their conditions may differ.
Legend:
[1] = cell-free system, EDTA as positive control; cited from earlier work
[2] = tested on: mouse liver cancer cell line BNLT3; assay: Cell density of BNLT3 cells (phase contrast); format: cell-based
Description: (§1) Cancer Cell Culture. The mouse liver cancer cell line BNLT3 (gift of Dr. Jack Wands, Brown University) and the human lung cancer cell line H460 (ATCC) were seeded into 96-well plates at a density of 4,000 cells/well and cultured at 37° C., 5% CO2, in DMEM (11965, Gibco) supplemented with 10% fetal bovine serum, 20 mM HEPES, 1 mM sodium pyruvate, and […] gentamycin (all reagents came from Gibco).
(§2) Cell Insults and Treatments. Determination of concentration for each anticancer drug in our experiments was based on its reported concentration in human cerebral spinal fluid (CSF) in chemotherapy, literature report of its neurotoxicity in culture, and our preliminary in vitro experimental data. At 13 d.i.v., the neuronal cell cultures were insulted with 100 μM of MTX (M9929, Sigma), 25 μM of 5-FU (F6627, Sigma), or 3.5 μM of CDDP (sc-200896, Santa Cruz) for 3 days in absence or presence of PAN 811.Cl.H2O. For ROS examination, the neurons were insulted with both 100 μM of MTX and 25 μM of 5-FU by 15 d.i.v. PAN-811.Cl.H2O was added to cultures to final concentrations of 1.25, 2.5, 5, and 10 μM at the same time as addition of the anticancer drugs. For cancer cell lines, the cells were insulted by the second day of cell seeding with the same concentration of MTX, 5-FU, or CDDP as used in neuronal culture in the absence or presence of 10 μM PAN-811.Cl.H2O for another 3 days.
(§3) Quantitative Assays and Morphological Assessment. Cell membrane integrity and mitochondrial function of either neurons or cancer cells were measured with LDH and 3-(4,5-dimethylthiazol-2-yl)-5-(3-carboxymethoxyphenyl)-2-(4-sulfophenyl)-2H-tetrazolium [MTS] analyses, respectively. The latter has been used to quantify cell survival. For the LDH assay, a mixture of a 35 μL aliquot of culture supernatant and 17.5 μL of Mixed Substrate, Enzyme and Dye Solutions (Sigma) was incubated at room temperature (RT) for 30 minutes. For the MTS assay, 10 μL of MTS reagent (Promega) was added to a culture well containing neurons in 50 μL of medium. The preparations were incubated at 37° C. for 2 hours. The preparations for both assays were then spectrophotometrically measured at 490 nm using a 96-well plate reader (Mode 550, Bio-Rad). Neuronal cell death was morphologically determined based on the integrity of the cell soma and continuity of neuronal processes. The change in number of cancer cells was judged directly by cell density. Cells were photographed under an inverted phase contrast microscope (IX 70, Olympus) using 10× or 20× objective.

[3] = tested on: human lung cancer cell line H460; assay: LDH assay (membrane integrity) in H460 cancer cells; format: cell-based
Description: as §1
as §2, with “[…] […]” for “At 13 d.i.v., the neuronal cell cultures were insulted with 100 μM of MTX (M9929, Sigma), 25 μM of 5-FU (F6627, Sigma), or 3.5 μM of CDDP (sc-200896, Santa Cruz) for 3 days in absence or presence of PAN 811.Cl.H2O. For ROS examination, the neurons were insulted with both 100 μM of MTX and 25 μM of 5-FU by 15 d.i.v.”
as §3
(§4) Data Analysis. Data were generated from 4-6 replicate wells, expressed as mean±standard deviation (SD), and statistically evaluated at a significance level of 1% with one factor ANOVA or Student's t-test by using software VASSARSTATS (http://vassarstats.net/) followed by the Tukey HSD test. Figure symbols are as follows: #, P<0.05, and ##, P<0.01, compared with control; *, P<0.05, and **, P<0.01, compared with the insulted group; §§, P<0.01, compared with PAN-811 treated group by Student's t-test.

[4] = tested on: ischemic neurodegeneration; settings: 0.45 μM; cited from earlier work
[5] = tested on: mouse liver cancer cell line BNLT3; assay: MTS assay in BNLT3 cancer cells; format: cell-based
Description: as §1, §2, §3, §4

[6] = tested on: human Alzheimer's disease-derived and age-matched olfactory neuroepithelial cells; settings: via suppression of intracellular reactive oxygen species; cited from earlier work
[7] = 3.5 μM CDDP and 10 μM PAN-811, 3 days
[8] = 25 μM 5-FU and 10 μM PAN-811, 3 days
[9] = 100 μM MTX and 10 μM PAN-811, 3 days
[10] = each agent alone, 3 days: MTX 100 μM, 5-FU 25 μM, CDDP 3.5 μM, PAN-811 10 μM

In the case of `NC(=S)N/N=C/c1ncccc1N` [PAN-811, 3-aminopyridine-2-carboxaldehyde thiosemicarbazone], the “chelation of free calcium” value [1] is listed as “as efficiently as EDTA”, the “cell density, cotreatment with CDDP” value [2, 7] is listed as “significant reduction in the cell density” and the “cell number, cotreatment with 5-FU” value [2, 8] is listed as “significantly decreased the cell number”. The “cell density, cotreatment with MTX” value [2, 9] was “cell density was also much lower than that in no-insult control”, the “cell density / cancer cell number” value [2, 10] was “cell density was also much lower than that in no-insult control; also recorded: significant reduction in the cell density” and the “increase in LDH reading, cotreatment with CDDP” value [3, 7] was 57%. For the same compound, the “effect on MTX-, 5-FU-, or CDDP-induced membrane leakage” value ([3]; 10 μM PAN-811) was “inhibitory effect”, the “reduction of LDH reading compared with MTX group, cotreatment” value [3, 9] was 70% and the “increase in LDH reading in culture supernatant” value [3, 10] was 31% and 30%. The ischemic neurodegeneration [4] was “fully blocked”, the “MTS reading, cotreatment vs PAN-811 alone” value [5, 7] was “did not introduce an extra reduction in MTS reading” and the “inhibition of the effect of MTX, 5-FU, or CDDP on BNLT3 cells” value ([5]; 10 μM PAN-811) was “did not show any inhibition”. The “synergistic effect with each tested anticancer drug on BNLT3 cell growth” value ([5]; 10 μM PAN-811) was “neither did it demonstrate any synergistic effect”, the “MTS reading, cotreatment vs 5-FU alone” value [5, 8] was “caused a further reduction in MTS reading” and the “MTS reading, cotreatment vs MTX alone” value [5, 9] was “did not cause any further reduction in MTS reading”. The “oxidative stress-induced cell death” value [6] was “inhibited”.

Source: patent US10525044B2, “Treatment for chemotherapy-induced peripheral neuropathy” (priority 2013, dated 2020)
